Measured values taken from patent publication US20170348306A1, “METHODS OF TREATING CANCER” (GLAXOSMITHKLINE LLC, priority 2011, published 2017).

Tests used:
[1] = system: H3K27me3 and EZH2 target genes in tumor xenografts; experiment: Pharmacodynamic study in tumor xenografts (H3K27me3/H3 ELISA, qRT-PCR); assay type: in vivo, mice; conditions: 10 days of once-daily (QD) dosing; dose-dependent
Description: Following tissue homogenization, tumor tissue lysates were prepared using the Epigentek Histone Extraction kit (OP-0006). […] Cells were lysed with 0.2N HCl for 30 minutes to extract histones, the acid-insoluble portion was pelleted by centrifugation, and the supernatant was neutralized with neutralization buffer (1M Na2HPO4, pH 12.5; ActiveMotif) containing protease inhibitors (Roche). Lysates were added to Maxisorp ELISA plates (Nunc) in duplicate on each of two plates plus blocking buffer (1% BSA). […] Luminata Forte substrate (Millipore) was added 5 minutes before chemiluminescence was quantified with an EnVision multi-label plate reader (PerkinElmer). H3K27me3 levels were normalized to total H3 values and IC50 values were determined using a 4-parameter curve fit. […]
All studies were conducted after review by the Institutional Animal Care and Use Committee at GSK and in accordance with the GSK Policy on the Care, Welfare and Treatment of Laboratory Animals. […] Tumors were measured with calipers, block randomized according to tumor size into treatment groups. […] Mice were weighed and tumors measured with calipers twice weekly. […]

RL = experiment: Cell proliferation assay (6 days, CellTiter-Glo); assay type: cell-based; conditions: Homo sapiens, 144 h, DLBCL, EZH2 Y641N, D185H (HET), read-out: AVERAGE GROWTH IC50
Description: (§1) Thus, Example 22 and Table 6 better reflect the inhibition of HZH2 inhibitors on cell lines, e.g. the lymphoma cell lines. DLBCL cell lines were the most sensitive to EZH2 inhibition (FIG. 11a). […] Evaluation of GSK126 in additional lymphoma cell lines and extensive genomic and epigenomic characterization will be required to fully elucidate the determinants of sensitivity among lymphoma subtypes.
(§2) Biochemical assays utilized the 5-member PRC2 complex (human Flag-EZH2, EED, SUZ12, AEBP2, RbAp48) containing either WT or mutant EZH2, [^3H-]SAM and the indicated peptide substrate; reactions were incubated for 30 minutes. Global histone modification levels were determined by ELISA or western blot methods using antibodies specific for total histone H3, H3K27me1, H3K27me2, or H3K27me3. Cell proliferation and Caspase-3/7 activity were assessed using CellTiter-Glo and Caspase-Glo 3/7 (Promega), respectively. Gene expression profiling was conducted using Affymetrix Human Genome U133 Plus 2.0 microarrays. Differentially-expressed probe sets were determined by fitting the data to a linear model using the limma statistical package (http://www.bioconductor.org) and carrying out pair-wise contrasts of treated versus control. Significant probe sets were filtered for detection (log2 signal threshold of 8), an average fold-change >2 or <−2, or >1.5 or <−1.5, where indicated, with p-values adjusted for multiple testing correction by FDR (Benjamini Hochberg)<0.1. H3K27me3 ChIP reads were aligned using Bowtie (56). H3K27me3 enrichment peaks were identified using SICER (57) with optimized parameters. A custom PERL script was utilized to quantify the average basal H3K27me3 ChIP-seq tag density across gene sets. All in vivo studies were conducted after review by the Institutional Animal Care and Use Committee at GSK and in accordance with the GSK Policy on the Care, Welfare and Treatment of Laboratory Animals. GSK126 and vehicle were administered to mice intraperitoneally. Two-tailed t-tests were conducted assuming two samples of equal variance.
(§3) The optimal cell seeding was determined empirically for all cell lines by examining the growth of a wide range of seeding densities in a 384-well format to identify conditions that permitted proliferation for 6 days. […] Plates were incubated for 6 days at 37° C. in 5% CO2. Cells were then lysed with CellTiter-Glo (Promega) and chemiluminescent signal was detected with a TECAN Safire2 microplate reader. In addition, an untreated plate of cells was harvested at the time of compound addition (T0) to quantify the starting number of cells. CTG values obtained after the 6 day treatment were expressed as a percent of the T0 value and plotted against compound concentration.

MINO = experiment: Cell proliferation assay (6 days, CellTiter-Glo); assay type: cell-based; conditions: Homo sapiens, 144 h, B-NHL, EZH2 D185H (HET), read-out: AVERAGE GROWTH IC50
Description: as §1, §2, §3

[2] = Tolerability in xenograft-bearing mice (body weight, behavior); assay type: in vivo
Description: All studies were conducted after review by the Institutional Animal Care and Use Committee at GSK and in accordance with the GSK Policy on the Care, Welfare and Treatment of Laboratory Animals. […] Pfeiffer or KARPAS-422 cells (1×10^7) in 100% matrigel (BD Biosciences) were implanted subcutaneously in female beige SCID mice. Tumors were measured with calipers, block randomized according to tumor size into treatment groups. […] Mice were weighed and tumors measured with calipers twice weekly. For mouse pharmacokinetic studies, tumor and blood samples were harvested from euthanized mice at the indicated time. […] For pharmacodynamic studies, a portion of each tumor was frozen for H3K27me3/H3 ELISAs or placed in RNAlater (Ambion) for RNA isolation. For peripheral blood analyses, blood was harvested via cardiac puncture from euthanized, immunocompetent CD-1 mice (3 mice/group) on day 18. Blood was immediately placed into a Microtainer EDTA tube (BD) and gently mixed by inverting. A complete blood count analysis was conducted using the Advia 2120 hematology analyzer (Siemens Medical Solutions) using multi-species software as per manufacturer's instructions.

For `CC[C@H](C)n1cc(C)c2c(C(=O)NCc3c(C)cc(C)[nH]c3=O)cc(-c3ccc(N4CCNCC4)nc3)cc21` [GSK126], the “gene expression in tumor xenografts” value [1] was “increased”, the “global H3K27me3 in tumor xenografts” value [1] was “decreased” and the IC50 (RL) was 4.73 µM. For the same compound, the IC50 (MINO) was 7.34 µM, the tolerability ([2]; doses and schedules examined, mice with xenografts) was “well tolerated” and the body weight ([2]; mice bearing Pfeiffer or KARPAS-422 xenografts) was “little to no decrease in body weight”.
